Measurements: ChEMBL document CHEMBL5244222, “A comprehensive review on xanthone derivatives as α-glucosidase inhibitors” (Eur J Med Chem, 2018)
≈ marks a conversion by molar mass, not a printed value.

Assays:
[1] = biological target: T1, Alpha glucosidase (Homo sapiens, UniProt O43451+P10253+P14410+Q2M2H8); test: Inhibition of alpha-glucosidase (unknown origin) at 100 uM; assay type: protein assay
[2] = biological target: T2, Alpha-glucosidase (Saccharomyces cerevisiae S288c, UniProt P53341+P38158+P07265); test: Inhibition of yeast alpha-glucosidase assessed as release of p-nitrophenol using PNPG as substrate preincubated for 10 mins followed by substrate addition and measured after 35 mins by microplate photometer analysis; assay type: protein assay
[3] = biological target: T2, Alpha-glucosidase; test: Inhibition of Saccharomyces cerevisiae alpha-glucosidase assessed as release of p-nitrophenol using pNPG as substrate preincubated for 15 mins followed by substrate addition and measured after 30 mins by spectrophotometric analysis; assay type: protein assay
[4] = organism: Rattus norvegicus; test: Inhibition of rat intestine alpha-glucosidase using MUG as substrate at 100 uM preincubated for 15 mins followed by substrate addition and measured after 30 mins by fluorescence microplate reader analysis; assay type: tissue-based; conditions: time 45.0 min
[5] = biological target: T1, Alpha glucosidase; test: Inhibition of alpha-glucosidase (unknown origin) using PNPG as substrate preincubated for 15 mins followed by substrate addition by microplate reader assay; assay type: protein assay
[6] = biological target: T2, Alpha-glucosidase; test: Inhibition of Saccharomyces cerevisiae alpha-glucosidase using PNPG as substrate incubated for 30 mins by spectrophotometric assay; assay type: protein assay
[7] = biological target: T2, Alpha-glucosidase; test: Inhibition of Saccharomyces cerevisiae alpha-glucosidase using PNPG as substrate preincubated for 15 mins followed by substrate addition and measured after 30 mins by spectrophotometric assay; assay type: protein assay
[8] = biological target: T2, Alpha-glucosidase; test: Mixed-type inhibition of Saccharomyces cerevisiae alpha-glucosidase using PNPG as substrate incubated for 30 mins by Lineweaver-Burk double-reciprocal plot analysis; assay type: protein assay
[9] = biological target: T2, Alpha-glucosidase; test: Inhibition of Saccharomyces cerevisiae alpha-glucosidase using maltose as substrate incubated for 30 mins by spectrophotometric assay; assay type: protein assay
[10] = biological target: T1, Alpha glucosidase; test: Inhibition of alpha-glucosidase (unknown origin) using PNPG as substrate incubated for 30 mins by absorbance assay; assay type: protein assay
[11] = biological target: T2, Alpha-glucosidase; test: Inhibition of yeast alpha-glucosidase using p-nitrophenyl-alpha-D-glucopyranoside as substrate incubated for 30 mins by spectrophotometric assay; assay type: protein assay
[12] = biological target: T2, Alpha-glucosidase; test: Inhibition of Saccharomyces cerevisiae alpha-glucosidase using pNPG as preincubated for 10 mins followed by substrate addition and measured after 30 mins by spectroscopic analysis; assay type: protein assay
[13] = biological target: T2, Alpha-glucosidase; test: Inhibition of Saccharomyces cerevisiae alpha-glucosidase using pNPG as preincubated for 15 mins followed by substrate addition and measured after 30 mins by spectroscopic analysis
[14] = Inhibition of rice alpha-glucosidase using p-nitrophenyl-alpha-D-glucopyranoside as substrate preincubated for 15 mins followed by substrate addition and measured after 90 mins by spectroscopic analysis
[15] = biological target: T2, Alpha-glucosidase; test: Inhibition of Saccharomyces cerevisiae alpha-glucosidase assessed as release of p-nitrophenol using pNPG as substrate preincubated for 15 mins followed by substrate addition and measured after 15 mins by plate reader analysis; assay type: protein assay
[16] = biological target: T2, Alpha-glucosidase; test: Inhibition of Saccharomyces cerevisiae alpha-glucosidase assessed as release of p-nitrophenol using pNPG as substrate preincubated for 5 mins followed by substrate addition and measured after 30 mins by absorbance assay; assay type: protein assay
[17] = biological target: T2, Alpha-glucosidase; test: Inhibition of baker's yeast alpha-glucosidase using PNP as substrate preincubated for 30 mins followed by […] addition and measured after 1 mins by UV spectrophotometric analysis; assay type: protein assay
[18] = biological target: Alpha-glucosidase (Saccharomyces cerevisiae S288c) (UniProt P53341+P38158+P07265); test: Inhibition of Saccharomyces cerevisiae alpha-glucosidase using p-NP-alpha-G as substrate at 100 uM by spectroscopic analysis; assay type: protein assay
[19] = test system: Prunus dulcis; test: Inhibition of almond beta-glucosidase using p-NP-beta-G as substrate at 100 uM by spectroscopic analysis
[20] = biological target: T1, Alpha glucosidase; test: Inhibition of alpha-glucosidase (unknown origin) at 40 uM; assay type: protein assay
[21] = Inhibition of rat jejunum sucrase; assay type: tissue-based
[22] = Inhibition of rat jejunum isomaltase; assay type: tissue-based
[23] = organism: Rattus norvegicus; test: Inhibition of rat jejunum maltase at 300 ug/ml; assay type: tissue-based; conditions: dose 300.0 µg/ml
[24] = Inhibition of rat intestine alpha-glucosidase using p-nitrophenyl-alpha-D-glucopyranoside as substrate preincubated for 10 mins followed by substrate addition and measured after 5 mins by spectroscopic analysis; assay type: tissue-based
[25] = organism: Rattus norvegicus; test: Inhibition of rat intestine alpha-glucosidase using MUG as substrate at 65 uM preincubated for 15 mins followed by substrate addition and measured after 30 mins by fluorescence microplate reader analysis; assay type: tissue-based; conditions: time 45.0 min
[26] = biological target: T2, Alpha-glucosidase; test: Inhibition of Saccharomyces cerevisiae alpha-glucosidase assessed as release of p-nitrophenol using pNPG as substrate preincubated for 15 mins followed by substrate addition and measured after 15 mins by spectrophotometric analysis; assay type: protein assay

COc1cc(OC/C=C(\C)C/C=C(\C)CC=C(C)C)c2c(=O)c3c(O)ccc(OC)c3oc2c1
inhibition [1]: 66.2%

COc1cc(O)c2c(=O)c3c(C/C=C(\C)CCC=C(C)C)c(OC)c(O)cc3oc2c1
IC50 [2]: 12.4 µM

COc1cc(OC/C=C(\C)CC=C(C)C)c2c(=O)c3c(O)ccc(OC)c3oc2c1
inhibition [1]: 30.9%

COC(=O)c1cc(O)cc2oc3cc(C)cc(O)c3c(=O)c12
IC50 [3]: 2.98 mM

O=c1c2cc(O)c(O)cc2oc2c([C@H]3O[C@@H](CO)[C@H](O)[C@@H](O)[C@@H]3O)c(O)cc(O)c12
inhibition [4]: 50% | IC50 [5]: 76.98 µg/mL (≈ 182 µM)

C=C(C)/C=C/c1c(O)c(CC=C(C)C)c2oc3c(O)ccc(O)c3c(=O)c2c1O
IC50 [6]: 10.8 µM | IC50 [7]: 84 µM | Ki [8]: 8.5 µM | IC50 [9]: 37.7 µM

C=C(C)/C=C/c1c(OC)cc2oc3cc(O)c(OC)c(/C=C/C(=C)C)c3c(=O)c2c1O
IC50 [6]: 14.4 µM | Ki [8]: 14.8 µM | IC50 [9]: 192 µM

CC(C)=CCOc1cc(O)c2c(=O)c3ccccc3oc2c1
inhibition [1]: 31%

CC(C)=CC/C(C)=C/Cc1c(O)cc2oc3c(O)ccc(O)c3c(=O)c2c1O
IC50 [6]: 6.9 µM | IC50 [7]: 394 µM | Ki [8]: 2.8 µM | IC50 [9]: 35.3 µM

COc1cc(OCC=C(C)C)c2c(=O)c3c(O)ccc(OC)c3oc2c1
inhibition [1]: 42.1%

O=c1c2c(O)cc(O)cc2oc2ccc(O)c(O)c12
IC50 [10]: 23.2 µM

COc1cc(OC/C=C(\C)C/C=C(\C)C/C=C(\C)C/C=C(\C)C/C=C(\C)C/C=C(\C)C/C=C(\C)C/C=C(\C)CC=C(C)C)c2c(=O)c3c(O)ccc(OC)c3oc2c1
inhibition [1]: 34.5%

COc1cc(O)c2c(=O)c3c(OC)c(O)c(O)cc3oc2c1
IC50 [10]: 44.5 µM

COc1c(O)cc2oc3cc(O)c(C/C=C(\C)CO)c(O)c3c(=O)c2c1C/C=C(/C)CC=C(C)C
IC50 [2]: 28 µM | IC50 [11]: 168.7 µM

COc1cc(O)c2c(=O)c3c(O)c(O[C@@H]4OC[C@@H](O)[C@H](O)[C@H]4O[C@@H]4O[C@@H](C)[C@H](O)[C@@H](O)[C@H]4O)ccc3oc2c1
IC50 [12]: 36 µM | IC50 [13]: 765 µM

COc1c(CC=C(C)C)c(O)c2c(=O)c3c(O)ccc(O)c3oc2c1CC=C(C)C
IC50 [7]: 76 µM

C=C(C)/C=C/c1c(O)c(CC=C(C)C)c2oc3c(O)cccc3c(=O)c2c1O
IC50 [6]: 21.5 µM | Ki [8]: 12.3 µM | IC50 [9]: 137.2 µM

C=C(C)/C=C/c1c(O)cc2oc3cc(O)c(OC)c(/C=C/C(=C)C)c3c(=O)c2c1O
IC50 [6]: 5 µM | IC50 [11]: 11.4 µM | Ki [8]: 7.3 µM | IC50 [9]: 53.3 µM

O=c1c2cc(O[C@H]3O[C@@H](O)[C@H](O)[C@@H](O)[C@@H]3O)c(O)cc2oc2cc(O)c([C@H]3O[C@@H](CO)[C@H](O)[C@@H](O)[C@@H]3O)cc12
IC50 [14]: 158 µg/mL (≈ 285 µM)

C=C(C)/C=C/c1c(O)cc2oc3c(/C=C/C(=C)C)c(O)c(OC)cc3c(=O)c2c1O
IC50 [2]: 53.5 µM

O=c1c2cc(O)ccc2oc2cccc(O)c12
IC50 [7]: 145 µM | IC50 [15]: 35.8 µg/mL (≈ 157 µM)

C=C(C)/C=C/c1c(O)cc2oc3cc(O)c(OC)c(CC(=O)C(=C)C)c3c(=O)c2c1O
IC50 [6]: 9.8 µM | Ki [8]: 8.1 µM | IC50 [9]: 85.7 µM

C=C(C)/C=C/c1c(O)cc(O)c2c(=O)c3c(C/C=C(/C)CC=C(C)C)c(OC)c(O)cc3oc12
IC50 [2]: 14.1 µM

O=c1c2ccccc2oc2cc(O)cc(O)c12
IC50 [10]: 35.2 µM

C=C(C)/C=C/c1c(OC)c(O)cc2oc3cc4c(c(O)c3c(=O)c12)CC(O)C(C)(C)O4 (configuration not stated)
IC50 [6]: 30.5 µM | Ki [8]: 23 µM | IC50 [9]: 102.5 µM

CC1(C)C=Cc2c(cc3oc4ccc(O)cc4c(=O)c3c2O)O1
IC50 [16]: > 100 µM

CC(C)=CC/C(C)=C/Cc1c(O)c(CC=C(C)C)c2oc3c(O)ccc(O)c3c(=O)c2c1O
IC50 [7]: 227 µM

CC(C)=CCc1cc2c(=O)c3c(O)c4c(cc3oc2c(O)c1O)OC(C)(C)C=C4
IC50 [16]: 29.36 µM

C=C(C)/C=C/c1c(OC)cc(O)c2c(=O)c3ccc(O)c(O)c3oc12
IC50 [2]: 9.4 µM

C=C(C)/C=C/c1c(O)cc2oc3cc(O)c(OC)c(C/C=C(\C)CC=C(C)C)c3c(=O)c2c1O
IC50 [2]: 10.7 µM | IC50 [11]: 20.7 µM

O=c1c2cc(O)ccc2oc2cc(O)cc(O)c12
IC50 [15]: 3.2 µg/mL (≈ 13.1 µM) | IC50 [17]: 14.7 µM

OC[C@H]1NC[C@H](O)[C@@H](O)[C@@H]1O
inhibition [18]: 79.6% | inhibition [19]: 81.2%

COC(=O)c1c(O)ccc2oc3cc(C(=O)O)cc(O)c3c(=O)c12
IC50 [3]: 0.26 mM

COc1ccc2oc3ccc(O)cc3c(=O)c2c1OC
IC50 [15]: 48.5 µg/mL (≈ 178 µM)

COc1cc(O[C@H]2O[C@@H](CO)[C@H](O)[C@H](O)[C@@H]2O)c2c(=O)c3ccc(OC)c(OC)c3oc2c1
inhibition [20]: 98.8%

CC1(C)C=Cc2c(cc3oc4c(O)c5c(cc4c(=O)c3c2O)C=CC(C)(C)O5)O1
IC50 [16]: > 100 µM

CC(C)=CCc1c(O)cc2oc3ccc(O)cc3c(=O)c2c1O
IC50 [16]: > 100 µM

COc1c(O)cc2oc3cc(O)c(C/C=C(\C)COC(C)=O)c(O)c3c(=O)c2c1C/C=C(/C)CC=C(C)C
IC50 [2]: 70.3 µM | IC50 [11]: 18.2 µM

COc1ccc2oc3ccc(O)cc3c(=O)c2c1
IC50 [15]: 77.3 µg/mL (≈ 319 µM)

CC(C)=CC/C(C)=C/COc1cc(O)c2c(=O)c3ccccc3oc2c1
inhibition [1]: 43.1%

C=C(C)/C=C/c1c(O)cc2oc3cc(O)c(O)c(C/C=C(\C)CC=C(C)C)c3c(=O)c2c1O
IC50 [2]: 1.7 µM

O=c1c2c(O)cc(O)cc2oc2cc(O)cc(O)c12
IC50 [10]: 39 µM

C=Cc1cc2oc3cc(O)cc(O)c3c(=O)c2c(OC)c1O
IC50 [10]: 26.3 µM

C=C(C)/C=C/c1c(O)cc2oc3cc(O)c(O)c(/C=C/C(=C)C)c3c(=O)c2c1O
IC50 [6]: 1.5 µM | Ki [8]: 1.4 µM | IC50 [9]: 17.5 µM

O=c1c2cc(O)c(O)cc2oc2cc(O)c([C@H]3O[C@@H](CO)[C@H](O)[C@@H](O)[C@@H]3O)c(O)c12
IC50 [21]: 87 µg/mL (≈ 206 µM) | IC50 [22]: 216 µg/mL (≈ 511 µM) | inhibition [23]: 42% | inhibition [4]: 53% | IC50 [24]: 52.2 mM | IC50 [14]: 96.1 µg/mL (≈ 228 µM)

C=C(C)/C=C/c1cc(O)c(O)c2oc3c(C/C=C(/C)CC=C(C)C)c(OC)cc(O)c3c(=O)c12
IC50 [2]: 7.8 µM

C=C(C)C1Cc2c(cc3oc4cc(O)c(OC)c(CC=C(C)C)c4c(=O)c3c2O)O1 (configuration not stated) [MANGOSTENONE F]
IC50 [6]: 21 µM | Ki [8]: 18.1 µM | IC50 [9]: 191.2 µM

C[C@H]1O[C@H](O[C@H]2[C@H](O)[C@@H](O)[C@@H](O[C@H]3[C@H](O)[C@@H](O)C(O)O[C@@H]3CO)O[C@@H]2CO)[C@H](O)[C@@H](O)[C@@H]1N[C@H]1C=C(CO)[C@@H](O)[C@H](O)[C@H]1O (some centres not stated) [ACARBOSE]
inhibition [25]: 50% | IC50 [24]: 1.82 mM | inhibition [20]: 5.4% | IC50 [14]: 2.39 µg/mL (≈ 3.7 µM)

COC(=O)c1c(O)c(O)cc2oc3c(Cl)c(C)c(Cl)c(O)c3c(=O)c12
IC50 [26]: 0.04 mM

C=CC(C)(C)c1c(O)ccc2c(=O)c3c(O)c(CC=C(C)C)c(OC)c(O)c3oc12
IC50 [16]: 8.9 µM
